Tests used:
[1] = target: T1, human NMDA receptor GluN1-GluN2A (Homo sapiens, UniProt Q05586+Q12879); assay: FLIPR calcium assay, quinolinic acid, gentamicin, dextromethadone (Example 5 Part II), GluN1-GluN2A-CHO; type: cell-based; parameters: calcium response (mean±SEM): unit not given here; conditions: for calcium response (mean±SEM): GluN2A, n=42
T1 construct: expressed in transfected cells; host or cells: CHO
Method: (§1) Quinolinic acid or gentamicin CRCs were also produced, in presence of 10 μM glycine.
(§2) Test items were evaluated in FLIPR for their ability to modulate, alone or in combination, calcium entry in presence of […], using four CHO cell lines expressing diheteromeric human NMDA receptor (NMDAR): GluN-/GluN2A-CHO, GluN1-GluN2B-CHO, GluN1-GluN2C-CHO, GluN1-GluN2D-CHO.
(§3) The first aim of the study was to evaluate quinolinic acid or gentamicin CRC effect in the presence of 10 μM glycine.
(§4) FLIPR determination of intracellular calcium level was used as a read-out for NMDAR activation.
(§5) 400× compound plate was stored at −20° C. till FLIPR experimental day.
(§6) A 4× compound plate was generated from 400× compound plate by addition of up to 30 μl/well of compound buffer on FLIPR experimental day.
(§7) A FLIPR system was used to monitor intracellular calcium level in NMDAR cell lines, pre-loaded for 1 hour with Fluo-4, and then washed with assay buffer.
(§8) Y=Bottom+(Top−Bottom)/(1+10^((LogEC50−X)*HillSlope))
(§9) Test item CRC data were plotted by Prism 8 GraphPad software, in the different experimental conditions. And, column analysis, performed by Prism 8 GraphPad software, was one way ANOVA followed by Tukey's multiple comparisons test, with a single pooled variance.

[2] = target: T2, human NMDA receptor GluN1-GluN2B (Homo sapiens, UniProt Q05586+Q13224); assay: FLIPR calcium assay, quinolinic acid, gentamicin, dextromethadone (Example 5 Part II), GluN1-GluN2B-CHO; type: cell-based; conditions: for calcium response (mean±SEM): GluN2B, n=42; for Response at max conc (%): quinolinic acid CRC, max 1,000 μM
T2 construct: expressed in transfected cells; host or cells: CHO
Method: as §1, §2, §3, §4, §5, §6, §7, §8, §9

[3] = target: T3, human NMDA receptor GluN1-GluN2C (Homo sapiens, UniProt Q05586+Q14957); assay: FLIPR calcium assay, quinolinic acid, gentamicin, dextromethadone (Example 5 Part II), GluN1-GluN2C-CHO; type: cell-based; conditions: for calcium response (mean±SEM): GluN2C, n=42
T3 construct: expressed in transfected cells; host or cells: CHO
Method: as §1, §2, §3, §4, §5, §6, §7, §8, §9

[4] = target: T4, human NMDA receptor GluN1-GluN2D (Homo sapiens, UniProt O15399+Q05586); assay: FLIPR calcium assay, quinolinic acid, gentamicin, dextromethadone (Example 5 Part II), GluN1-GluN2D-CHO; type: cell-based; conditions: for calcium response (mean±SEM): GluN2D, n=42
T4 construct: expressed in transfected cells; host or cells: CHO
Method: as §1, §2, §3, §4, §5, §6, §7, §8, §9

[5] = target: rat GluN1-GluN2B receptor (Rattus norvegicus, UniProt P35439+Q00960); conditions: Banke and Traynelis, 2003; read-out: potency; cited from earlier work
[6] = 0.04 μM L-Glu + 100 μM QA, 10 μM glycine
[7] = 0.04 μM L-Glu + 1000 μM QA, 10 μM glycine
[8] = 0.2 μM L-Glu + 100 μM QA, 10 μM glycine
[9] = 0.2 μM L-Glu + 1000 μM QA, 10 μM glycine
[10] = 100 μM QA, 10 μM glycine, 100% = 10 μM L-glutamate plus 10 μM glycine
[11] = 1000 μM QA, 10 μM glycine, 100% = 10 μM L-glutamate plus 10 μM glycine
[12] = 1000 μM QA, 10 μM glycine, 100% = 10 μM L-glutamate plus 10 μM glycine, listed as QA
[13] = CRC in presence of 10 μM glycine
[14] = quinolinic acid CRC, max 1,000 μM, 10 μM glycine

T3 sequence (Q14957 20-1233, other chains not shown): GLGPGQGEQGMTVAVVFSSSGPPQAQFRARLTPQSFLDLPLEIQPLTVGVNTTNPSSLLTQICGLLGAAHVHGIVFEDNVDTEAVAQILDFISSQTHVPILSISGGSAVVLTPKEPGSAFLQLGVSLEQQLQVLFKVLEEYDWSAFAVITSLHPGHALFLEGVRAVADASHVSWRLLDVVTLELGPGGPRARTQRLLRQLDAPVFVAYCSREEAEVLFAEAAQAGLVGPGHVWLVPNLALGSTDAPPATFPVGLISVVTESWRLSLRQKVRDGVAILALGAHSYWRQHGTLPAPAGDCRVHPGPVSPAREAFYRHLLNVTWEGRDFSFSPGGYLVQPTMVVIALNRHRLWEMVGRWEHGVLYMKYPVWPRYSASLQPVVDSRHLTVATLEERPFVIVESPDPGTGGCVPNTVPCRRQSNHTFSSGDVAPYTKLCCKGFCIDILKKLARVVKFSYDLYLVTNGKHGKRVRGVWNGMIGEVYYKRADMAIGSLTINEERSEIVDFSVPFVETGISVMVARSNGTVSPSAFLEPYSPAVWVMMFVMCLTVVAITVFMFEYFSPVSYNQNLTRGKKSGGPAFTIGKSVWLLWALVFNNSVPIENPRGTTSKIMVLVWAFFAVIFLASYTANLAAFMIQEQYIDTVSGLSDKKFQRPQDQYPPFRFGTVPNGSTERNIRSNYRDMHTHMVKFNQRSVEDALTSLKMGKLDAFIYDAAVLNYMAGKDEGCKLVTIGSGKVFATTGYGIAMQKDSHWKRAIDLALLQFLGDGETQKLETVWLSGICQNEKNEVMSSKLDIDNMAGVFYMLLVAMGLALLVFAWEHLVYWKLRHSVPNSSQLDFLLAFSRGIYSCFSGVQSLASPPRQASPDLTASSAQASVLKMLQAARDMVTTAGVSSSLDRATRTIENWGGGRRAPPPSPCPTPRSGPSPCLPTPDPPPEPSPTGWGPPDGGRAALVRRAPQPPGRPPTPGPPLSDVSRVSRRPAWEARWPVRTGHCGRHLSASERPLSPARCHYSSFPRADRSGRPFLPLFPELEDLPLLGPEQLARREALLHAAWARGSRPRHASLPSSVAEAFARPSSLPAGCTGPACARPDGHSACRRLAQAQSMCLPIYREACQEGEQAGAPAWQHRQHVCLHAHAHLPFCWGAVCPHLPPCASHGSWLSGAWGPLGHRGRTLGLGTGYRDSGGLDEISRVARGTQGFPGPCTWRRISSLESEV
T4 sequence (O15399 28-1336, other chains not shown): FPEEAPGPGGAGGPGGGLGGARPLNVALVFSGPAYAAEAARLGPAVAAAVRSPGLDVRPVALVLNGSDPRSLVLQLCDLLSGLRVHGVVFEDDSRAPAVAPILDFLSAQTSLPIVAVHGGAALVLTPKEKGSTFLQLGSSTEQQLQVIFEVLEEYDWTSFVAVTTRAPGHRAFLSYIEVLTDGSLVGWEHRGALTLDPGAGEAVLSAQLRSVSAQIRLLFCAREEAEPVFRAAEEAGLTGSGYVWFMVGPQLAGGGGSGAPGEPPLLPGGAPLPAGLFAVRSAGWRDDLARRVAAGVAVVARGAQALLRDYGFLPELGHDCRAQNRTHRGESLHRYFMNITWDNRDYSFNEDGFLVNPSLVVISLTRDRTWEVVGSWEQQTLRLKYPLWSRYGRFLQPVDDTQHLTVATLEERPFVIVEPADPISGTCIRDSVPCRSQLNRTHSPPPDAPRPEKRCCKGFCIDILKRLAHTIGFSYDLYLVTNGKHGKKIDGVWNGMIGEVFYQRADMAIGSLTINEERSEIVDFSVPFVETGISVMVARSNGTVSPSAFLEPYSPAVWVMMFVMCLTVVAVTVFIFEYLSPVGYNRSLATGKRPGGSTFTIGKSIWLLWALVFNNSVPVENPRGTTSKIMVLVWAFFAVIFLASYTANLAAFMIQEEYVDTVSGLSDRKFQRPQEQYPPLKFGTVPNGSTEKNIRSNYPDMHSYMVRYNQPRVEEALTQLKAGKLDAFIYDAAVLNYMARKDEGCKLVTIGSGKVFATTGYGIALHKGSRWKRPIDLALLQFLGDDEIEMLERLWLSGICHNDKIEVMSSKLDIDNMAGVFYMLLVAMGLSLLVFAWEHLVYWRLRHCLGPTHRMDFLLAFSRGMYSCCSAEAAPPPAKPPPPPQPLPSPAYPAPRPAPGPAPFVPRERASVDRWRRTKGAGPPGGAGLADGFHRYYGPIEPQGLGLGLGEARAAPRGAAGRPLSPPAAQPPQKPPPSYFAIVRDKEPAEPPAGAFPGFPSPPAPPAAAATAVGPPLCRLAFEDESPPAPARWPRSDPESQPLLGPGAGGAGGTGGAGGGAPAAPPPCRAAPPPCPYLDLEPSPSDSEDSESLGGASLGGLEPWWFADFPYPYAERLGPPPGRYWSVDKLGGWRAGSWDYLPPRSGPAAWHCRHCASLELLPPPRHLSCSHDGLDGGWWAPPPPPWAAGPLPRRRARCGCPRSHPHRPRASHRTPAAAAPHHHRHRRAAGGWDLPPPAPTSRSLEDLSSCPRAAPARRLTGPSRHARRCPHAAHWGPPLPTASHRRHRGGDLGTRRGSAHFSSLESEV
T1 sequence (Q12879 23-1464, other chains not shown): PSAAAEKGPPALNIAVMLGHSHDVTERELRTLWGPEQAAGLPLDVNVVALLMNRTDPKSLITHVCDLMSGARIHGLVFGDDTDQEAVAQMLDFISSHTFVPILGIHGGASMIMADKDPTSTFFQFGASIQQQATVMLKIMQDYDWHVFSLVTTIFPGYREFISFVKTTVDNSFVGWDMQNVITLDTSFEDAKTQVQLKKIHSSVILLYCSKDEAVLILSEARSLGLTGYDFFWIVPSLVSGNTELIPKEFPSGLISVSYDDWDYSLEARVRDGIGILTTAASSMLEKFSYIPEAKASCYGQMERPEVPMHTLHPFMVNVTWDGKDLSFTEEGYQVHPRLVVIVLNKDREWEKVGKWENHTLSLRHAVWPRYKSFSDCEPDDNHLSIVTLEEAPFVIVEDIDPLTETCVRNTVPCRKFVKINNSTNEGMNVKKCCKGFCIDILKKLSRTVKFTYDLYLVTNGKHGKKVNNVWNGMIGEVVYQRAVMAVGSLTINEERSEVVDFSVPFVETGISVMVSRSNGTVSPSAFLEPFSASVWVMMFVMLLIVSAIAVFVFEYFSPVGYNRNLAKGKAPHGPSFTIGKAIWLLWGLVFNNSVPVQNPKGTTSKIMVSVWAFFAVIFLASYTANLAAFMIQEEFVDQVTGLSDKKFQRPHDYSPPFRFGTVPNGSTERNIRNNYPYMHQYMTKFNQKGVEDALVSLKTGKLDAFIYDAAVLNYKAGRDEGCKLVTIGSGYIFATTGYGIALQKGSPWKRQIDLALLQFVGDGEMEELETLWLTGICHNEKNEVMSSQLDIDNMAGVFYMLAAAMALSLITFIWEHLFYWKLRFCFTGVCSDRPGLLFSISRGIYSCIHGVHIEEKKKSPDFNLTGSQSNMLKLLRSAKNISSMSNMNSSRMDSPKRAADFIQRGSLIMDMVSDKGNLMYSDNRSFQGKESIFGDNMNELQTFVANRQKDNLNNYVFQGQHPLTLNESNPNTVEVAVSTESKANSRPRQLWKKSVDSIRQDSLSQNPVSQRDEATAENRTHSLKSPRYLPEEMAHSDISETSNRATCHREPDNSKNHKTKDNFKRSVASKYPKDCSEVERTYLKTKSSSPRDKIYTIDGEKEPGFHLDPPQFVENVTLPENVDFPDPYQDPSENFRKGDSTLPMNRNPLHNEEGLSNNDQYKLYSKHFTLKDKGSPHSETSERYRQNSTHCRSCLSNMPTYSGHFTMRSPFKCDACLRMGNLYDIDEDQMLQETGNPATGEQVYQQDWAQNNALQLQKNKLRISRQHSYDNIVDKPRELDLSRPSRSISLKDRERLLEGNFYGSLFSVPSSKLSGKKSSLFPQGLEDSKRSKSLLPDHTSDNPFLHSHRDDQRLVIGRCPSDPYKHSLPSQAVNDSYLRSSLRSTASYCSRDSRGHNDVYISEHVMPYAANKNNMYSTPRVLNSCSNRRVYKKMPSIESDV

SMILES: O=C(O)c1cccnc1C(=O)O [Quinolinic acid]
- calcium response (mean±SEM) [1, 6]: 7.5 ± 0.4
- calcium response (mean±SEM) [1, 7]: 41 ± 1.0
- calcium response (mean±SEM) [1, 8]: 26 ± 0.6
- calcium response (mean±SEM) [1, 9]: 46 ± 0.9
- EC50 ([1]; 10 μM glycine, fit with maximal response constrained at 75%, read-out: EC50): 850 µM
- % effect on calcium entry, 100 QA [1, 10]: 2.5 ± 0.3%
- calcium response (mean±SEM) ([1]; 1000 μM QA, 10 μM glycine): 41 ± 1.2
- % effect on calcium entry, 1000 QA [1, 11]: 41±1.1%
- % effect on calcium entry, 1000 QA [1, 12]: 41 ± 1.2%
- % effect on calcium entry, 1000 QA ([1]; 1000 μM QA, 10 μM glycine, 100% = 10 μM L-glutamate plus 10 μM glycine, listed as quinolinic acid): 41±1.2%
- Minimal response (%) [1, 13]: −1.9%
- Response at max conc (%) [1, 14]: 40%
- calcium response (mean±SEM) [2, 6]: 3.7 ± 1.3
- calcium response (mean±SEM) [2, 7]: 27 ± 2.2
- calcium response (mean±SEM) [2, 8]: 27 ± 0.8
- calcium response (mean±SEM) [2, 9]: 27 ± 1.5
- EC50 ([2]; 10 μM glycine, read-out: EC50): 170 µM
- % effect on calcium entry, 100 QA [2, 10]: 0.9 ± 0.7%
- calcium entry in CRC ([2]; 333 μM quinolinic acid, 10 μM glycine): 23±3.0%
- calcium response (mean±SEM) ([2]; 1000 μM QA, 10 μM glycine): 37 ± 1.3
- % effect on calcium entry, 1000 QA [2, 11]: 37±1.3%
- % effect on calcium entry, 1000 QA [2, 12]: 37 ± 1.3%
- Minimal response (%) [2, 13]: −2.1%
- Response at max conc (%) ([2]; 10 μM glycine): 25%
- Response at max conc (%) ([2]; 10 μM glycine, listed as quinolinic acid): 25±2.1%
- calcium response (mean±SEM) [3, 6]: −2.0 ± 1.1
- calcium response (mean±SEM) [3, 7]: −4.1 ± 0.9^
- calcium response (mean±SEM) [3, 8]: 27 ± 1.1
- calcium response (mean±SEM) [3, 9]: 6.6 ± 0.8
- EC50 ([3]; 10 μM glycine, read-out: EC50): > 1000 µM
- % effect on calcium entry, 100 QA [3, 10]: −2.8 ± 0.6%
- calcium response (mean±SEM) ([3]; 1000 μM QA, 10 μM glycine): −5.5 ± 0.4^
- % effect on calcium entry, 1000 QA [3, 11]: −5.5 ± 0.4^ %
- Minimal response (%) [3, 13]: −4.0%
- intracellular calcium increase elicited by 0.2 μM L-glutamate ([3]; plus 1000 μM quinolinic acid, 10 μM glycine): 6.6±0.8%
- Response at max conc (%) [3, 14]: −4.0%
- calcium response (mean±SEM) [4, 6]: 26 ± 1.2
- calcium response (mean±SEM) [4, 7]: 53 ± 2.3
- calcium response (mean±SEM) [4, 8]: 93 ± 1.0
- calcium response (mean±SEM) [4, 9]: 58 ± 1.6
- EC50 ([4]; 10 μM glycine, read-out: EC50): 520 µM
- % effect on calcium entry, 100 QA [4, 10]: −0.1 ± 0.4%
- calcium response (mean±SEM) ([4]; 1000 μM QA, 10 μM glycine): 55 ± 1.1
- % effect on calcium entry, 1000 QA [4, 11]: 55±1.1%
- % effect on calcium entry, 1000 QA [4, 12]: 55 ± 1.1%
- Minimal response (%) [4, 13]: −1.3%
- Response at max conc (%) [4, 14]: 50%
- EC50 [5]: 518 ± 35 µM
